Where two headings read alike, the source gives them in different places.
Target: NR1/NR2A (Homo sapiens (Human), UniProt Q05586+Q12879)
Test: FDSS Ca2+ influx inhibition assay in HEK293 cells expressing NR1/NR2A
Assay type: cell-based
Conditions: 3 μM glutamate, 3 μM glycine, 1 mM Ca2+
In short: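 Fluo-8-loaded HEK293 NR1/NR2A cells preincubated 10 min with compound at 10 μM final (0.1% DMSO) in Ca2+/Mg2+-free HBSS with 20 mM HEPES. Stimulated with 3 μM glutamate, 3 μM glycine, 1 mM Ca2+; FDSS recording for 3 min, end/baseline fluorescence ratio compared with MK801.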

[1] = inhibition relative to MK801, read-out: NR2A IC50

NR1/NR2A, sequence (Q12879 23-1464, other chains not shown): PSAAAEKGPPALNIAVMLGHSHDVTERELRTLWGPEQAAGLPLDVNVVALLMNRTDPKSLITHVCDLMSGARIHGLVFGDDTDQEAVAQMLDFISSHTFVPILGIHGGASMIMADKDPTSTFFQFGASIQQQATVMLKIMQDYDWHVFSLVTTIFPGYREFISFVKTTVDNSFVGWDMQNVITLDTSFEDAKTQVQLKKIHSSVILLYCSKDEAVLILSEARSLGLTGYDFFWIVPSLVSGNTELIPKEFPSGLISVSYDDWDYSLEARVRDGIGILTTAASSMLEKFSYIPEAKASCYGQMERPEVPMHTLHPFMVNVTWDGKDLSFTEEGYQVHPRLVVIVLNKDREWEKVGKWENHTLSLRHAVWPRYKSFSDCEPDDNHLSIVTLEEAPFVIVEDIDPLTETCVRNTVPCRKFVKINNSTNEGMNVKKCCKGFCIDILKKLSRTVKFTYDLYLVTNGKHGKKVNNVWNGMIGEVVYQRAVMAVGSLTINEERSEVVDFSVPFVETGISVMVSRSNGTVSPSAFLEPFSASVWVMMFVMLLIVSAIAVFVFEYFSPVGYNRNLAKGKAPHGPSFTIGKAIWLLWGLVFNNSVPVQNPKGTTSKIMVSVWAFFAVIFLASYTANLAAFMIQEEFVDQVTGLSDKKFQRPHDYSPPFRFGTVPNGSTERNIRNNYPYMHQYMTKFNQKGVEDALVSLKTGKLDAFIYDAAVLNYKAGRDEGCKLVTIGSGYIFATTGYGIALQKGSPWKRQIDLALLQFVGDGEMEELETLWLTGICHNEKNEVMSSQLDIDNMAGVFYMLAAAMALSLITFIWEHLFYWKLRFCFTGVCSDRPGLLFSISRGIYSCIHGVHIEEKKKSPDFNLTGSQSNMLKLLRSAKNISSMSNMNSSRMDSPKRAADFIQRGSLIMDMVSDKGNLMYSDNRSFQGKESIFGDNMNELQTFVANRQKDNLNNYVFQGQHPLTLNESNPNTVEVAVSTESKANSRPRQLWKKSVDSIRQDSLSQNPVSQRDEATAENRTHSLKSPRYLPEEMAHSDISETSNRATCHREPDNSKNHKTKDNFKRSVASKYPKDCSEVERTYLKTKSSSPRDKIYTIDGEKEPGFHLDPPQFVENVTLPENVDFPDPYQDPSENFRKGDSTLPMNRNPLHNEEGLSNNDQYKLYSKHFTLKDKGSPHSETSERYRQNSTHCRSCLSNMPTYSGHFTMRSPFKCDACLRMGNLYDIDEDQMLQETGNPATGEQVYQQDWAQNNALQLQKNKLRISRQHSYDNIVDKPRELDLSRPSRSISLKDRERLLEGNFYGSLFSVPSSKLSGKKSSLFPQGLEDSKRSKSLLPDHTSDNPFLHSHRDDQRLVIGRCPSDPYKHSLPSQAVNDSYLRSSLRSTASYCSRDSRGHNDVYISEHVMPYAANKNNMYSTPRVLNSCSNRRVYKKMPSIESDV

SMILES	IC50 [1] [µM]	IC50 (read-out: Binned Activity) [µM]
Cc1cc(CNC(=O)c2ccc(CNS(=O)(=O)c3ccc(F)c(Cl)c3)nc2)n(C)n1 [6-(3-chloro-4-fluorobenzenesulfon-amidomethyl)-N-[(1,3-dimethyl-1H-pyrazol-5-yl)methyl]pyridine-3-carboxamide]	10	> 10
Cc1ccc(CNC(=O)c2ccc(CNS(=O)(=O)c3ccc(F)c(Cl)c3)nc2)n1C [6-(3-chloro-4-fluorobenzenesulfon-amidomethyl)-N-[(1,5-dimethyl-1H-pyrrol-2-yl)methyl]pyridine-3-carboxamide]	10	> 10
Cn1ccnc1CNC(=O)c1ccc(CNS(=O)(=O)c2ccc(F)c(Cl)c2)nc1 [6-(3-chloro-4-fluorobenzenesulfon-amidomethyl)-N-[(1-methyl-1H-imidazol-2-yl)methyl]pyridine-3-carboxamide]		0.1 to 1
Cn1cnc(CNC(=O)c2ccc(CNS(=O)(=O)c3ccc(F)c(Cl)c3)nn2)c1 [6-(3-chloro-4-fluorobenzenesulfon-amidomethyl)-N-[(1-methyl-1H-imidazol-4-yl)methyl]pyridazine-3-carboxamide]	10	> 10
Cn1cnc(CNC(=O)c2ccc(CNS(=O)(=O)c3ccc(F)c(Cl)c3)nc2)c1 [6-(3-chloro-4-fluorobenzenesulfon-amidomethyl)-N-[(1-methyl-1H-imidazol-4-yl)methyl]pyridine-3-carboxamide]	10	> 10
Cn1nccc1CNC(=O)c1ccc(CNS(=O)(=O)c2ccc(F)c(Cl)c2)nc1 [6-(3-chloro-4-fluorobenzenesulfon-amidomethyl)-N-[(1-methyl-1H-pyrazol-5-yl)methyl]pyridine-3-carboxamide]	10	> 10
Cn1cccc1CNC(=O)c1ccc(CNS(=O)(=O)c2ccc(F)c(Cl)c2)nc1 [6-(3-chloro-4-fluorobenzenesulfon-amidomethyl)-N-[(1-methyl-1H-pyrrol-2-yl)methyl]pyridine-3-carboxamide]	10	> 10
C[C@@H](NC(=O)c1ccc(CNS(=O)(=O)c2ccc(F)c(Cl)c2)nn1)c1cncs1 [6-(3-chloro-4-fluorobenzenesulfon-amidomethyl)-N-[(1R)-1-(1,3-thiazol-5-yl)ethyl]pyridazine-3-carboxamide]	10	> 10
C[C@@H](NC(=O)c1ccc(CNS(=O)(=O)c2ccc(F)c(Cl)c2)nc1)c1cncs1 [6-(3-chloro-4-fluorobenzenesulfon-amidomethyl)-N-[(1R)-1-(1,3-thiazol-5-yl)ethyl]pyridine-3-carboxamide]	10	
COc1ccccc1CNC(=O)c1ccc(CNS(=O)(=O)c2ccc(F)c(Cl)c2)nc1 [6-(3-chloro-4-fluorobenzenesulfon-amidomethyl)-N-[(2-methoxyphenyl)methyl] pyridine-3-carboxamide]	10	> 10
COc1cc(CNC(=O)c2ccc(CNS(=O)(=O)c3ccc(F)c(Cl)c3)nc2)ccn1 [6-(3-chloro-4-fluorobenzenesulfon-amidomethyl)-N-[(2-methoxypyridin-4-yl)methyl]pyridine-3-carboxamide]	10	> 10
Cc1nc(CNC(=O)c2ccc(CNS(=O)(=O)c3ccc(F)c(Cl)c3)nn2)cs1 [6-(3-chloro-4-fluorobenzenesulfon-amidomethyl)-N-[(2-methyl-1,3-thiazol-4-yl)methyl]pyridazine-3-carboxamide]	10	> 10
Cc1nc(CNC(=O)c2ccc(CNS(=O)(=O)c3ccc(F)c(Cl)c3)nc2)cs1 [6-(3-chloro-4-fluorobenzenesulfon-amidomethyl)-N-[(2-methyl-1,3-thiazol-4-yl)methyl]pyridine-3-carboxamide]	10	> 10
Cc1ncc(CNC(=O)c2ccc(CNS(=O)(=O)c3ccc(F)c(Cl)c3)nn2)s1 [6-(3-chloro-4-fluorobenzenesulfon-amidomethyl)-N-[(2-methyl-1,3-thiazol-5-yl)methyl]pyridazine-3-carboxamide]	10	> 10
COc1cccc(CNC(=O)c2ccc(CNS(=O)(=O)c3ccc(F)c(Cl)c3)nn2)c1 [6-(3-chloro-4-fluorobenzenesulfon-amidomethyl)-N-[(3-methoxyphenyl)methyl] pyridazine-3-carboxamide]	10	> 10
COc1ccc(CNC(=O)c2ccc(CNS(=O)(=O)c3ccc(F)c(Cl)c3)nn2)cc1 [6-(3-chloro-4-fluorobenzenesulfon-amidomethyl)-N-[(4-methoxyphenyl)methyl] pyridazine-3-carboxamide]	10	> 10
COc1ccc(CNC(=O)c2ccc(CNS(=O)(=O)c3ccc(F)c(Cl)c3)nc2)cc1 [6-(3-chloro-4-fluorobenzenesulfon-amidomethyl)-N-[(4-methoxyphenyl)methyl] pyridine-3-carboxamide]	10	> 10

SMILES	IC50 [1] [µM]	IC50 (read-out: Binned Activity) [µM]
Cc1csc(CNC(=O)c2ccc(CNS(=O)(=O)c3ccc(F)c(Cl)c3)nc2)n1 [6-(3-chloro-4-fluorobenzenesulfon-amidomethyl)-N-[(4-methyl-1,3-thiazol-2-yl)methyl]pyridine-3-carboxamide]	10	> 10
Cc1ncsc1CNC(=O)c1ccc(CNS(=O)(=O)c2ccc(F)c(Cl)c2)nn1 [6-(3-chloro-4-fluorobenzenesulfon-amidomethyl)-N-[(4-methyl-1,3-thiazol-5-yl)methyl]pyridazine-3-carboxamide]	10	> 10
Cc1ncsc1CNC(=O)c1ccc(CNS(=O)(=O)c2ccc(F)c(Cl)c2)nc1 [6-(3-chloro-4-fluorobenzenesulfon-amidomethyl)-N-[(4-methyl-1,3-thiazol-5-yl)methyl]pyridine-3-carboxamide]	10	> 10
Cc1ccncc1CNC(=O)c1ccc(CNS(=O)(=O)c2ccc(F)c(Cl)c2)nn1 [6-(3-chloro-4-fluorobenzenesulfon-amidomethyl)-N-[(4-methylpyridin-3-yl)methyl]pyridazine-3-carboxamide]	10	> 10
Cc1ccncc1CNC(=O)c1ccc(CNS(=O)(=O)c2ccc(F)c(Cl)c2)nc1 [6-(3-chloro-4-fluorobenzenesulfon-amidomethyl)-N-[(4-methylpyridin-3-yl)methyl]pyridine-3-carboxamide]		1 to 10
Cc1nnc(CNC(=O)c2ccc(CNS(=O)(=O)c3ccc(F)c(Cl)c3)nc2)o1 [6-(3-chloro-4-fluorobenzenesulfon-amidomethyl)-N-[(5-methyl-1,3,4-oxadiazol-2-yl)methyl]pyridine-3-carboxamide]	10	> 10
Cc1nnc(CNC(=O)c2ccc(CNS(=O)(=O)c3ccc(F)c(Cl)c3)nc2)s1 [6-(3-chloro-4-fluorobenzenesulfon-amidomethyl)-N-[(5-methyl-1,3,4-thiadiazol-2-yl)methyl]pyridine-3-carboxamide]	10	> 10
Cc1cnc(CNC(=O)c2ccc(CNS(=O)(=O)c3ccc(F)c(Cl)c3)nn2)cn1 [6-(3-chloro-4-fluorobenzenesulfon-amidomethyl)-N-[(5-methylpyrazin-2-yl)methyl]pyridazine-3-carboxamide]	10	> 10
Cc1cnc(CNC(=O)c2ccc(CNS(=O)(=O)c3ccc(F)c(Cl)c3)nc2)cn1 [6-(3-chloro-4-fluorobenzenesulfon-amidomethyl)-N-[(5-methylpyrazin-2-yl)methyl]pyridine-3-carboxamide]		0.1 to 1
Cc1ccc(CNC(=O)c2ccc(CNS(=O)(=O)c3ccc(F)c(Cl)c3)nc2)s1 [6-(3-chloro-4-fluorobenzenesulfon-amidomethyl)-N-[(5-methylthiophen-2-yl)methyl]pyridine-3-carboxamide]	10	> 10
COc1ccc(CNC(=O)c2ccc(CNS(=O)(=O)c3ccc(F)c(Cl)c3)nc2)cn1 [6-(3-chloro-4-fluorobenzenesulfon-amidomethyl)-N-[(6-methoxypyridin-3-yl)methyl]pyridine-3-carboxamide]	10	> 10
Cc1cccc(CNC(=O)c2ccc(CNS(=O)(=O)c3ccc(F)c(Cl)c3)nc2)n1 [6-(3-chloro-4-fluorobenzenesulfon-amidomethyl)-N-[(6-methylpyridin-2-yl)methyl]pyridine-3-carboxamide]	10	> 10
Cc1nc(C)c(CNC(=O)c2ccc(CNS(=O)(=O)c3ccc(F)c(Cl)c3)nn2)s1 [6-(3-chloro-4-fluorobenzenesulfon-amidomethyl)-N-[(dimethyl-1,3-thiazol-5-yl)methyl]pyridazine-3-carboxamide]	10	> 10
Cc1nc(C)c(CNC(=O)c2ccc(CNS(=O)(=O)c3ccc(F)c(Cl)c3)nc2)s1 [6-(3-chloro-4-fluorobenzenesulfon-amidomethyl)-N-[(dimethyl-1,3-thiazol-5-yl)methyl]pyridine-3-carboxamide]	10	> 10
O=C(NCc1ncccc1C(F)(F)F)c1ccc(CNS(=O)(=O)c2ccc(F)c(Cl)c2)nc1 [6-(3-chloro-4-fluorobenzenesulfon-amidomethyl)-N-{[3-(trifluoromethyl)pyridin-2-yl]methyl}pyridine-3-carboxamide]	10	> 10
O=C(NCc1ncc(C(F)(F)F)cc1Cl)c1ccc(CNS(=O)(=O)c2ccc(F)c(Cl)c2)nc1 [6-(3-chloro-4-fluorobenzenesulfon-amidomethyl)-N-{[3-chloro-5-(trifluoromethyl)pyridin-2-yl]methyl}pyridine-3-carboxamide]	10	> 10
Cc1ncc(CNC(=O)c2ccc(CNS(=O)(=O)c3cn(C)cn3)cn2)s1 [N-[(2-methyl-1,3-thiazol-5-yl)methyl]-5-(1-methyl-1H-imidazole-4-sulfonamidomethyl) pyridine-2-carboxamide]	10	> 10
